Assays:
[1] = system: subcutaneous SW1222 xenografts; experiment: pre-targeted biodistribution: A33-TCO, 24 h later ^64Cu-Tz-Bn-NOTA; assay type: in vivo, mice; conditions: for Biodistribution: Blood / Biodistribution: Bone / Biodistribution: Feces / Biodistribution: Heart / Biodistribution: Kidney / Biodistribution: Large intestine / Biodistribution: Liver / Biodistribution: Lung / Biodistribution: Muscle / Biodistribution: Skin / Biodistribution: Small intestine / Biodistribution: Spleen / Biodistribution: Stomach / Biodistribution: Tumor: A33-TCO (100 μg) 24 h before ^64Cu-Tz-Bn-NOTA; for uptake in all other tissues (not tumor, feces): generally
Protocol: Values are represented as % ID/g±SD. Mice (n=4) bearing subcutaneous SW1222 xenografts were administered huA33-TCO (100 μg) via tail vein injection. After 24 hours the same mice were administered ^64Cu-Tz-Bn-NOTA (0.55-0.75 MBq [15-20 μCi] via tail vein injection (t=0).
Following the synthesis and characterization of the components of the system, in vivo pre-targeted biodistribution and PET imaging experiments were performed. For the pre-targeted biodistribution experiments, mice bearing SW1222 xenografts were administered huA33-TCO (100 μg) via tail vein injection. After a 24 h interval, the mice were administered ^64Cu-Tz-NOTA via tail vein injection. The data reveal rapid accumulation and retention of activity in the tumor, with 4.1±0.3% ID/g at 1 h p.i and 4.2±0.3% ID/g at 12 h p.i. (Table 1). The compound is excreted through the feces, with high levels of activity at 1 h p.i. dropping to 0.9±0.1% ID/g at 12 h, and the amount of uptake in other tissues remains very low, generally less than 0.3% ID/g.
For the pre-targeted biodistribution experiments, mice bearing subcutaneous SW1222 xenografts were administered A33-TCO ([…]) via tail vein injection. […] The data reveal rapid accumulation and retention of radioactivity in the tumor, with 4.1±0.3 percent injected dose per gram (% ID/g) at 1 h after injection, 4.2±0.8% ID/g at 12 h, and 4.0±0.9% ID/g at 24 h (Table 1). The compound is excreted through the feces, with high levels of activity at 1 h after injection dropping to 2.5±0.1% ID/g at 12 h. The amount of uptake in all other tissues remains low, generally less than 1% ID/g.
The specificity of antibodies have made immunoconjugates promising vectors for the delivery of radioisotopes to cancer cells; however, their long pharmacologic half-lives necessitate the use of radioisotopes with long physical half-lives, a combination that leads to high radiation doses to patients. Therefore, the development of targeting modalities that harness the advantages of antibodies without their pharmacokinetic limitations is desirable. To this end, we report the development of a methodology for pre-targeted PET imaging based on the bioorthogonal Diels-Alder click reaction between tetrazine and transcyclooctene. A proof-of-concept system based on the A33 antibody, SW1222 colorectal cancer cells, and ^64Cu was used. The huA33 antibody was covalently modified with transcyclooctene, and a NOTA-modified tetrazine was synthesized and radiolabeled with ^64Cu. Pre-targeted in vivo biodistribution and PET imaging experiments were performed with athymic nude mice bearing A33 antigen-expressing, SW1222 colorectal cancer xenografts. The huA33 antibody was modified with transcyclooctene to produce a conjugate with high immunoreactivity, and the ^64Cu-NOTA-labeled tetrazine ligand was synthesized with greater than 99% purity and a specific activity of 9-10 MBq/mg. For in vivo experiments, mice bearing SW1222 xenografts were injected with transcyclooctene-modified A33; after allowing 24 h for accumulation of the antibody in the tumor, the mice were injected with 64Cu-NOTA-labeled tetrazine for PET imaging and biodistribution experiments. At 12 h after injection, the retention of uptake in the tumor ([…] percent injected dose per gram), coupled with the fecal excretion of excess radioligand, produced images with high tumor-to-background ratios. […] Conclusion: The high quality of the images produced by this pretargeting approach, combined with the ability of the methodology to dramatically reduce non-target radiation doses to patients, marks this system as a strong candidate for clinical translation.

[2] = in vitro stability of the radioligand in human serum at 37° C., HPLC; assay type: in vitro ADME
Protocol: (§1) The stability of the radioligand was assayed in vitro by incubation in human serum at 37° C. and subsequent HPLC analysis. The ^64Cu-Tz-Bn-NOTA remained relatively stable after 1 h, with 93.0%±2.5% intact. […] In addition, in vivo stability experiments were performed, and these produced similar results, although some acceleration in decomposition can be noted: 77%±3% of the ^64Cu-Tz-Bn-NOTA is intact in the blood after 60 min, followed by 47%±2% after 2 h and 22%±3% after 6 h. Although greater stability may be preferable, the speed of the cycloaddition reaction and the rapid pharmacokinetics of the radioligand led us to believe it unlikely that poor serum stability at later time points would limit the system.

[3] = in vivo stability of the radioligand in the blood
Protocol: as §1

[4] = target: A33 antigen (human) (UniProt Q99795); experiment: immunoreactivity of the TCO-modified antibody (assay not described in this sentence)
[5] = target: A33 antigen (human) (UniProt Q99795); experiment: immunoreactivity assay of the radiolabelled antibody (cells not given)
[6] = target: A33 antigen (human) (UniProt Q99795); experiment: immunoreactivity assay with A33 antigen-expressing SW1222 human colorectal cancer cells, radiolabelled antibody

UniProt Q99795, sequence (Q99795 22-319): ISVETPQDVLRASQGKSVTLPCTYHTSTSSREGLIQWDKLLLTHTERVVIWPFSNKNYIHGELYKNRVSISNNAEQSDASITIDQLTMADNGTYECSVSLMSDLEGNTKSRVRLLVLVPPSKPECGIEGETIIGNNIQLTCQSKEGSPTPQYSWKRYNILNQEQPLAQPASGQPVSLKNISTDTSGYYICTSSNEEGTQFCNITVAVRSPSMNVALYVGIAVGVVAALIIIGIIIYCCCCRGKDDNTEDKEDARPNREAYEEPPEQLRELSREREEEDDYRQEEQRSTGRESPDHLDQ

## O=C([O-])CN1CCN(CC(=O)[O-])CC(Cc2ccc(NC(=O)CCCC(=O)NCc3ccc(-c4nncnn4)cc3)cc2)N(CC(=O)[O-])CC1.[64Cu+2] (stereo not drawn) [^64Cu-Tz-Bn-NOTA]
[1]; 1 h
  Biodistribution: Blood: 3.5 ± 0.6 % ID/g
  Biodistribution: Bone: 0.3 ± 0.2 % ID/g
  Biodistribution: Feces: 11.9 ± 4.4 % ID/g
  Biodistribution: Heart: 1.1 ± 0.2 % ID/g
  Biodistribution: Kidney: 1.3 ± 0.1 % ID/g
  Biodistribution: Large intestine: 0.5 ± 0.0 % ID/g
  Biodistribution: Liver: 2.2 ± 0.3 % ID/g
  Biodistribution: Lung: 1.6 ± 0.5 % ID/g
  Biodistribution: Muscle: 0.2 ± 0.0 % ID/g
  Biodistribution: Skin: 0.3 ± 0.1 % ID/g
  Biodistribution: Small intestine: 0.0 ± 0.0 % ID/g
  Biodistribution: Spleen: 0.6 ± 0.1 % ID/g
  Biodistribution: Stomach: 0.5 ± 0.1 % ID/g
  Biodistribution: Tumor: 4.1±0.3 % ID/g
[1]; 1 h, listed as 64Cu-Tz-NOTA
  Biodistribution: Tumor: 4.1±0.3 % ID/g
[1]; 4 h
  Biodistribution: Blood: 2.6 ± 0.8 % ID/g
  Biodistribution: Bone: 0.3 ± 0.2 % ID/g
  Biodistribution: Feces: 8.8 ± 3.4 % ID/g
  Biodistribution: Heart: 0.9 ± 0.3 % ID/g
  Biodistribution: Kidney: 0.9 ± 0.3 % ID/g
  Biodistribution: Large intestine: 3.1 ± 1.1 % ID/g
  Biodistribution: Liver: 1.3 ± 0.3 % ID/g
  Biodistribution: Lung: 1.6 ± 0.4 % ID/g
  Biodistribution: Muscle: 0.1 ± 0.0 % ID/g
  Biodistribution: Skin: 0.3 ± 0.1 % ID/g
  Biodistribution: Small intestine: 0.4 ± 0.1 % ID/g
  Biodistribution: Spleen: 0.5 ± 0.2 % ID/g
  Biodistribution: Stomach: 0.3 ± 0.1 % ID/g
  Biodistribution: Tumor: 4.1 ± 0.6 % ID/g
[1]; 12 h
  Biodistribution: Blood: 2.3 ± 0.4 % ID/g
  Biodistribution: Bone: 0.4 ± 0.1 % ID/g
  Biodistribution: Feces: 2.5±0.1 % ID/g
  Biodistribution: Heart: 0.9 ± 0.1 % ID/g
  Biodistribution: Kidney: 0.9 ± 0.3 % ID/g
  Biodistribution: Large intestine: 2.3 ± 1.0 % ID/g
  Biodistribution: Liver: 0.9 ± 0.2 % ID/g
  Biodistribution: Lung: 1.1 ± 0.4 % ID/g
  Biodistribution: Muscle: 0.2 ± 0.0 % ID/g
  Biodistribution: Skin: 0.4 ± 0.1 % ID/g
  Biodistribution: Small intestine: 0.8 ± 0.5 % ID/g
  Biodistribution: Spleen: 0.6 ± 0.3 % ID/g
  Biodistribution: Stomach: 0.5 ± 0.6 % ID/g
  Biodistribution: Tumor: 4.2±0.8 % ID/g
[1]; 12 h, listed as 64Cu-NOTA-labeled tetrazine
  Biodistribution: Tumor: 4.1±0.3 % ID/g
[1]; 12 h, listed as 64Cu-Tz-NOTA
  Biodistribution: Feces: 0.9±0.1 % ID/g
  Biodistribution: Tumor: 4.2±0.3 % ID/g
[1]; 12 h, pre-targeting, A33-TCO 24 h before radioligand
  tumor-to-muscle activity concentration ratio: 26.6±6.6
[1]; 24 h
  Biodistribution: Blood: 2.1 ± 0.5 % ID/g
  Biodistribution: Bone: 0.3 ± 0.1 % ID/g
  Biodistribution: Feces: 1.4 ± 0.5 % ID/g
  Biodistribution: Heart: 0.8 ± 0.2 % ID/g
  Biodistribution: Kidney: 0.7 ± 0.2 % ID/g
  Biodistribution: Large intestine: 1.1 ± 0.4 % ID/g
  Biodistribution: Liver: 1.1 ± 0.2 % ID/g
  Biodistribution: Lung: 1.0 ± 0.3 % ID/g
  Biodistribution: Muscle: 0.1 ± 0.0 % ID/g
  Biodistribution: Skin: 0.5 ± 0.2 % ID/g
  Biodistribution: Small intestine: 0.3 ± 0.0 % ID/g
  Biodistribution: Spleen: 0.4 ± 0.1 % ID/g
  Biodistribution: Stomach: 0.2 ± 0.0 % ID/g
  Biodistribution: Tumor: 4.0±0.9 % ID/g
[1]; pre-targeting
  uptake in all other tissues (not tumor, feces): less than 1 % ID/g
[1]; pre-targeting, listed as 64Cu-Tz-NOTA
  uptake in all other tissues (not tumor, feces): less than 0.3 % ID/g
[2]; 1 h
  radioligand intact: 93.0%±2.5%
[2]; 12 h
  radioligand intact: 31.6%±6.1%
[3]; 60 min
  radioligand intact in the blood: 77%±3%
[3]; 2 h
  radioligand intact in the blood: 47%±2%
[3]; 6 h
  radioligand intact in the blood: 22%±3%

## TCO-modified huA33 (huA33-TCO) (antibody)
[4]
  immunoreactivity: > 95%

## ^64Cu-NOTA-A33 (A33-TCO reacted with ^64Cu-Tz-Bn-NOTA) (antibody)
[5]
  immunoreactivity: > 95%
[6]
  immunoreactivity: 95.6%

## ^89Zr-DFO-A33 (antibody)
[5]
  immunoreactivity: 92%

Reference: US20150359913A1, “TETRAZINES/TRANS-CYCLOOCTENES IN SOLID PHASE SYNTHESIS OF LABELED PEPTIDES” (MEMORIAL SLOAN-KETTERING CANCER CENTER, priority 2013, published 2015)
